Laboratory results: patent US20140275090A1, “BILE ACID RECYCLING INHIBITORS FOR TREATMENT OF PRIMARY SCLEROSING CHOLANGITIS AND INFLAMMATORY BOWEL DISEASE” (Lumena Pharmaceuticals, Inc., priority 2013, published 2014)

System: fecal bile acids
Assay: Fecal bile acid measurement, rats dosed 4 days
Assay type: in vivo, Wistar rat
Conditions: for Increase over Vehicle (Delta): fecal bile acids, rat, 4 days
Method: Male Wistar rats (Charles River Laboratories) weighing 275-300 grams were single-housed in a constant temperature environment with alternating 12 hour light and dark cycles. All animals had continuous access to a commercial rodent diet as well as water. In each study rats were randomly assigned to either vehicle or treatment groups and were administered intragastric doses of drug dissolved in aqueous 0.2% (v/v) Tween 80 (2 ml/kg body weight). The animals were dosed in the morning between 9:00 and 10:00 a.m. for four consecutive days. Fecal samples were collected on papers underneath each cage during the final 48 hour period of the study and analyzed for bile acid content.
Cage papers containing the 48-hour fecal samples were collected at approximately 9:00 a.m. on the final day and used to determine the individual fecal bile acid (FBA) concentration for each animal. Fecal samples from each rat were weighed and a weight of distilled water (1 gram/mL) equal to 2 times the total weight of feces was added to each sample container (e.g., 20 mL water to 10 grams feces). The containers were stored overnight at 4° C. Each sample was homogenized for approximately 45 seconds using a small food processor to yield a homogeneous slurry. 1.4 grams of the homogenate was weighed into 16×100 polypropylene tubes and 2.6 mL of tertiary butanol/distilled water (2:0.6) added to yield a final concentration of 50% (v/v) tertiary butanol in water. The sample was extracted by incubation for 45 minutes in a 37° C. water bath, and subjected to centrifugation at 3000×g for 13 minutes and the supernatant extract collected.
The concentration of bile acids […] in the extract was determined using a 96-well enzymatic assay system (4,5). 20 μl aliquots of each butanol extract was added to two sets of triplicate wells in a 96-well assay plate (one set on each half of the plate). Standardized sodium taurocholate solutions (0.2 and 0.9 mM) and standardized fecal extract solutions (previously made from pooled fecal samples collected from control and drug-treated rats) were analyzed in parallel to provide a bile acid standard curve and internal quality control samples, respectively. 20 μl aliquots of the sodium taurocholate standard were serially diluted to generate a standard curve and were added to two separate sets of triplicate wells.
To each well, 230 μl of reaction mixture containing 1M hydrazine hydrate, 0.1 M pyrophosphate and 0.46 mg/ml NAD was added. […] Following a 60 minute incubation at room temperature, the optical density at 340 nm was measured and the mean of each set of triplicate wells was calculated. […] A mean value for the increase in FBA for each group was determined and compared to the vehicle group used, to determine compound dosing efficacy. […]

CCCCC1(CCCC)CS(=O)(=O)c2ccc(N(C)C)cc2[C@@H](c2ccc(OCc3ccc(C[N+]45CCN(CC4)CC5)cc3)cc2)[C@H]1O [LUM001]
Increase over Vehicle (Delta) (Q.D. 0.002 mg/kg/day): 4.1 | Increase over Vehicle (Delta) (Q.D. 0.008 mg/kg/day): 5.9 | Increase over Vehicle (Delta) (Q.D. 0.4 mg/kg/day): 47.0 | effect on fecal bile acids (rats, all doses): significantly increased
